Experimental data: ChEMBL document CHEMBL3885881, “DrugMatrix”

Organism: Rattus norvegicus
Test: DrugMatrix - Regimen: Daily Repeat
Assay type: toxicity, organism-based, Sprague-Dawley
Set-up: regimen Daily Repeat, gender Male, age 6-8 weeks
Conditions: in vivo, ip, route intraperitoneal, vehicle 100 % SALINE; for URIC ACID / ALANINE AMINOTRANSFERASE / ALBUMIN / ALKALINE PHOSPHATASE / ASPARTATE AMINOTRANSFERASE / BLOOD UREA NITROGEN / CHLORIDE / CHOLESTEROL / CREATINE PHOSPHOKINASE / CREATININE / GLUCOSE / LACTATE DEHYDROGENASE / LIPASE / PHOSPHORUS / POTASSIUM / SODIUM / TOTAL BILIRUBIN / TOTAL PROTEIN: tissue Plasma
[1] = 5 mg/kg, 120 h, tissue Blood, dose level High, time 5 day
[2] = 5 mg/kg, 120 h, dose level High, time 5 day
[3] = 5 mg/kg, […], tissue Blood, dose level High, time 14 day
[4] = 5 mg/kg, […], tissue Blood, dose level High, time 28 day
[5] = 5 mg/kg, […], dose level High, time 14 day
[6] = 5 mg/kg, […], dose level High, time 28 day

## CARBOPLATIN
0 mg/kg, […], dose level Control, time 28 day
  URIC ACID: 1.26 mg/dL
[1]
  ABSOLUTE BASOPHIL: 26 cells/µL
  ABSOLUTE EOSINOPHIL: 44 cells/µL
  ABSOLUTE LYMPHOCYTE: 5500 cells/µL
  ABSOLUTE MONOCYTE: 120 cells/µL
  ABSOLUTE SEGMENTED NEUTROPHIL: 520 cells/µL
  BASOPHIL: 0.4%
  EOSINOPHIL: 0.72%
  ERYTHROCYTE COUNT: 7.51 x10E6/uL
  HEMATOCRIT: 46.82%
  LEUKOCYTE COUNT: 6.24 x10E3/uL
  LYMPHOCYTE: 88.18%
  MEAN CORPUSCULAR HEMOGLOBIN: 20.08 pg
  MEAN CORPUSCULAR HEMOGLOBIN CONCENTRATION: 32.18 G/DL
  MONOCYTE: 2.02%
  NEUTROPHIL: 8.22%
  PLATELET COUNT: 1572.2 x10E3/uL
[2]
  ALANINE AMINOTRANSFERASE: 21.4 u/L
  ALBUMIN: 3.62 G/DL
  ALKALINE PHOSPHATASE: 214.8 u/L
  ASPARTATE AMINOTRANSFERASE: 70.6 u/L
  BLOOD UREA NITROGEN: 14.6 mg/dL
  CHLORIDE: 107.4 MEQ/L
  CHOLESTEROL: 59.4 mg/dL
  CREATINE PHOSPHOKINASE: 192.6 u/L
  CREATININE: 0.54 mg/dL
  GLUCOSE: 139.6 mg/dL
  LACTATE DEHYDROGENASE: 65 u/L
  LIPASE: 27.2 u/L
  PHOSPHORUS: 11.28 mg/dL
  POTASSIUM: 5.36 MEQ/L
  SODIUM: 146.8 MEQ/L
  TOTAL BILIRUBIN: 0.18 mg/dL
  TOTAL PROTEIN: 6.16 G/DL
  URIC ACID: 1.16 mg/dL
[3]
  ABSOLUTE BASOPHIL: 130 cells/µL
  ABSOLUTE EOSINOPHIL: 88 cells/µL
  ABSOLUTE LYMPHOCYTE: 8780 cells/µL
  ABSOLUTE MONOCYTE: 260 cells/µL
  ABSOLUTE SEGMENTED NEUTROPHIL: 1370 cells/µL
  BASOPHIL: 1.28%
  EOSINOPHIL: 0.82%
  ERYTHROCYTE COUNT: 7.59 x10E6/uL
  HEMATOCRIT: 44.92%
  LEUKOCYTE COUNT: 10.68 x10E3/uL
  LYMPHOCYTE: 81.92%
  MEAN CORPUSCULAR HEMOGLOBIN: 19.52 pg
  MEAN CORPUSCULAR HEMOGLOBIN CONCENTRATION: 32.96 G/DL
  MONOCYTE: 2.38%
  NEUTROPHIL: 13.02%
  PLATELET COUNT: 1274 x10E3/uL
[4]
  ABSOLUTE BASOPHIL: 170 cells/µL
  ABSOLUTE EOSINOPHIL: 89 cells/µL
  ABSOLUTE LYMPHOCYTE: 9490 cells/µL
  ABSOLUTE MONOCYTE: 290 cells/µL
  ABSOLUTE SEGMENTED NEUTROPHIL: 1640 cells/µL
  BASOPHIL: 1.3%
  EOSINOPHIL: 0.78%
  ERYTHROCYTE COUNT: 8.56 x10E6/uL
  HEMATOCRIT: 50.05%
  LEUKOCYTE COUNT: 11.75 x10E3/uL
  LYMPHOCYTE: 81.13%
  MEAN CORPUSCULAR HEMOGLOBIN: 19.05 pg
  MEAN CORPUSCULAR HEMOGLOBIN CONCENTRATION: 32.58 G/DL
  MEAN CORPUSCULAR VOLUME: 58.46 fL
  MONOCYTE: 2.43%
  NEUTROPHIL: 13.81%
  PLATELET COUNT: 1331.9 x10E3/uL
[5]
  ALANINE AMINOTRANSFERASE: 30.2 u/L
  ALBUMIN: 3.48 G/DL
  ALKALINE PHOSPHATASE: 147.2 u/L
  ASPARTATE AMINOTRANSFERASE: 92.8 u/L
  BLOOD UREA NITROGEN: 12.2 mg/dL
  CHOLESTEROL: 54 mg/dL
  CREATINE PHOSPHOKINASE: 251.2 u/L
  CREATININE: 0.46 mg/dL
  GLUCOSE: 105.2 mg/dL
  LACTATE DEHYDROGENASE: 123.4 u/L
  LIPASE: 31.2 u/L
  PHOSPHORUS: 8.36 mg/dL
  POTASSIUM: 5.68 MEQ/L
  SODIUM: 149.4 MEQ/L
  TOTAL BILIRUBIN: 0.22 mg/dL
  TOTAL PROTEIN: 6.24 G/DL
  URIC ACID: 0.6 mg/dL
[6]
  ALANINE AMINOTRANSFERASE: 36.4 u/L
  ALBUMIN: 3.74 G/DL
  ALKALINE PHOSPHATASE: 135 u/L
  ASPARTATE AMINOTRANSFERASE: 95.6 u/L
  BLOOD UREA NITROGEN: 13.2 mg/dL
  CHLORIDE: 106.6 MEQ/L
  CHOLESTEROL: 55.8 mg/dL
  CREATINE PHOSPHOKINASE: 186.2 u/L
  CREATININE: 0.51 mg/dL
  GLUCOSE: 115.1 mg/dL
  LACTATE DEHYDROGENASE: 98.7 u/L
  LIPASE: 8.62 u/L
  PHOSPHORUS: 9.03 mg/dL
  POTASSIUM: 6.36 MEQ/L
  SODIUM: 150.9 MEQ/L
  TOTAL BILIRUBIN: 0.22 mg/dL
